Data reported in patent US10040815B2, “3-substituted 5-amino-6H-thiazolo[4,5-d]pyrimidine-2,7-dione compounds for the treatment and prophylaxis of virus infection” (Hoffmann-La Roche Inc., priority 2014, dated 2018).

tested on: HBV (hepatitis B virus); assay: In vivo antiviral efficacy in AAV-HBV mouse model; details: 100 mg/kg PO, QOD, after the 6-week treatment, mouse serum
Description: The treatment started after the mice were infected with AAV-HBV for 29 days. They were given the treatment for 42 days, and HBV DNA and HBsAg in mouse serum were measured on the indicated time points by RT-qPCR and HBsAg CLIA respectively. The results were presented as mean±SEM. LLQ: lower limit of quantification.
This mouse model for HBV infection was generated by injecting C57BL/6 mice with a recombinant adeno-associated virus (AAV) carrying a replicable HBV (hepatitis B virus) genome (AAV-HBV).
For each study, ten 4-5 week old male C57BL/6 mice, specific pathogen free, were available from Shanghai Laboratory Animal Center of Chinese Academy of Sciences (SLAC) and housed in an animal care facility in individually ventilated cages under controlled temperature and light conditions following the Institutional Animal Care guidelines. AAV-HBV virus stock was purchased from Beijing FivePlus Molecular Medicine Institute (Beijing, China). C57BL/6 mice were injected with 200 μL of recombinant virus in saline buffer through tail vein injection. The mice were bled on day 14 post injection to monitor the levels of HBsAg, HBeAg, and HBV genomic DNA in serum, and randomly grouped based on these HBV biomarker levels.
All the mice were treated for a total of 6 weeks. Serum samples were collected twice a week to monitor the levels of HBV biomarkers. Serum HBsAg was measured using CLIA kits (Autobio Diagnostics Co., Ltd, Zhengzhou, China) according to the manufacturer's instructions. The lower limit of quantification (LLQ) for HBsAg was 0.1 ng/mL. Serum dilution of 500-fold (for HBsAg) was used to obtain values within the linear range of the standard curve. Serum HBV DNA was extracted using a MagNA Pure 96 DNA and Viral NA Small Volume Kit (Roche) following the manufacturer's instructions. The DNA samples were analyzed by real-time quantitative PCR (qPCR) using a HBV-specific primer and probe set for specific amplification and detection of a 128 bp HBV genome region from the nucleotide 2969 to 3096. The LLQ for HBV DNA was 20 copies/μL.

Row | Compound | reduction in HBV DNA | reduction in HBsAg [log]
1 | CCC(OC(C)=O)[C@@H]1C[C@@H](O)[C@H](n2c(=O)sc3cnc(N)nc32)O1 (single isomer, unassigned) [Example 4-A] | more than 2 log | 1.5

same assay, conditions: 300 mg/kg PO, QOD, at the end of the treatment (6 weeks), mouse serum

Row | Compound | reduction in HBV DNA | reduction in HBsAg [log]
2 | CCC(OC(C)=O)[C@@H]1C[C@@H](O)[C@H](n2c(=O)sc3cnc(N)nc32)O1 (single isomer, unassigned) [Example 4-A] | more than 3 log | 2.7

tested on: human hepatocytes; assay: Metabolic conversion of prodrugs to active forms in human hepatocytes (LC-MS/MS); assay type: in vitro ADME; details: after 3-hour incubation of 50 μM of prodrugs; product 1-A, 14-A or Penciclovir
Text: Metabolism of Prodrugs: Formula (II) or Formula (IIa) A study was undertaken to evaluate the metabolic conversion of prodrugs, formula (II) or formula (IIa), to compounds of formula (I) or formula (Ia) of the present invention. The produgs, formula (II) or formula (IIa), can be metabolized to the active compound of formula (I) or formula (Ia) and other compounds of the invention in the body if they are served as prodrugs. Hepatocytes are often used to assess the degree of metabolic conversion of prodrugs in the body of animal or human. A study was undertaken to evaluate the metabolic conversion of prodrugs, Example 2-A, Example 3-A, Example 4-A, Example 16-A and Example 17-A, to the corresponding active forms, Example 1-A and Example 14-A, in the presence of human hepatocytes. The formation of active forms, Example 1-A and Example 14-A, were monitored in the study. For comparison, the metabolic conversion of famciclovir to penciclovir was also assessed. Cryopreserved hepatocytes plating medium (Cat.#: PY-HMD-01) was purchased from RILD Research Institute for Liver Diseases (Shanghai) Co. Ltd. Cryopreserved human hepatocyte (Cat.#: X008005, Lot#:VRR) was purchased from In Vitro Technologies (Baltimore, Md.). The stock hepatocyte suspension was prepared from cryopreserved hepatocytes in plating medium at the concentration of 1.8×10^6 cells/mL. […] Reaction suspensions were prepared in 24-well cell culture plate by mixing 200 μL of hepatocytes suspension (Cyno or human) and 200 μL of working solution. The final incubation contained 0.9×10^6 cells/mL and 50 μM compound. The above mixtures were incubated at 37° C. in a humidified 5% CO2 atmosphere, with a 150 rpm shaking. After 180 min of incubation, 200 μL of the incubation mixture was transferred to 1.5 mL tube and quenched with 400 μL stop solution (ice-cold acetonitrile with 0.2 μM Tolbutamide as internal standard). The samples were centrifuged at 12000 rpm for 10 minutes and the resultant supernatants were subjected to LC-MS/MS analysis. The calibration curves were prepared in the following way. To a 200 μL of cell suspension (cell density of 1.8 million cells/mL), 198 μL of hepatocyte plating medium and 2 μL of the appropriate concentration of the compound in DMSO were added. Samples were mixed thoroughly and 200 μL of the mixture was transferred to 400 uL of the stop solution (see above). […] The compounds were quantified on an API5500 […] instrument in the ESI-Positive MRM mode.

Row | Compound | Product Concentration in human hepatocytes (metabolized product formed from prodrug) [µM]
3 | Nc1ncc2sc(=O)n([C@@H]3O[C@H](C(O)C4CC4)C[C@H]3O)c2n1 (stereo partly drawn) [Example 17-A, 5-Amino-3-[(2R,3R,5S)-5-[cyclopropyl(hydroxy)methyl]-3-hydroxy-tetrahydrofuran-2-yl]thiazolo[4,5-d]pyrimidin-2-one] | 7.3

same assay, conditions: human hepatocytes; active metabolites Example 1-A, Example 14-A and penciclovir, respectively

Row | Compound | metabolic conversion of prodrug to active metabolite in human hepatocytes
4 | CCC(O)[C@@H]1C[C@@H](O)[C@H](n2c(=O)sc3cnc(N)nc32)O1 (single isomer, unassigned) [Example 2-A] | metabolized to yield the corresponding active metabolites
5 | CCC(O)[C@@H]1C[C@@H](OC(C)=O)[C@H](n2c(=O)sc3cnc(N)nc32)O1 (single isomer, unassigned) [Example 3-A] | metabolized to yield the corresponding active metabolites
6 | CCC(OC(C)=O)[C@@H]1C[C@@H](O)[C@H](n2c(=O)sc3cnc(N)nc32)O1 (single isomer, unassigned) [Example 4-A] | metabolized to yield the corresponding active metabolites
7 | CC(=O)OC(C1CC1)[C@@H]1C[C@@H](O)[C@H](n2c(=O)sc3cnc(N)nc32)O1 (single isomer, unassigned) [Example 16-A] | metabolized to yield the corresponding active metabolites
8 | Nc1ncc2sc(=O)n([C@@H]3O[C@H](C(O)C4CC4)C[C@H]3O)c2n1 (stereo partly drawn) [Example 17-A, 5-Amino-3-[(2R,3R,5S)-5-[cyclopropyl(hydroxy)methyl]-3-hydroxy-tetrahydrofuran-2-yl]thiazolo[4,5-d]pyrimidin-2-one] | metabolized to yield the corresponding active metabolites
9 | CC(=O)OCC(CCn1cnc2cnc(N)nc21)COC(C)=O [Famciclovir, famciclovir, reference compound] | metabolized to yield the corresponding active metabolites

molecular target: human TLR7 (Homo sapiens (Human), UniProt Q9NYK1); assay: HEK293-Blue-hTLR-7 cells assay (SEAP reporter, NF-κB activation); assay type: cell-based; details: not given
Sequence (Q9NYK1 27-1049): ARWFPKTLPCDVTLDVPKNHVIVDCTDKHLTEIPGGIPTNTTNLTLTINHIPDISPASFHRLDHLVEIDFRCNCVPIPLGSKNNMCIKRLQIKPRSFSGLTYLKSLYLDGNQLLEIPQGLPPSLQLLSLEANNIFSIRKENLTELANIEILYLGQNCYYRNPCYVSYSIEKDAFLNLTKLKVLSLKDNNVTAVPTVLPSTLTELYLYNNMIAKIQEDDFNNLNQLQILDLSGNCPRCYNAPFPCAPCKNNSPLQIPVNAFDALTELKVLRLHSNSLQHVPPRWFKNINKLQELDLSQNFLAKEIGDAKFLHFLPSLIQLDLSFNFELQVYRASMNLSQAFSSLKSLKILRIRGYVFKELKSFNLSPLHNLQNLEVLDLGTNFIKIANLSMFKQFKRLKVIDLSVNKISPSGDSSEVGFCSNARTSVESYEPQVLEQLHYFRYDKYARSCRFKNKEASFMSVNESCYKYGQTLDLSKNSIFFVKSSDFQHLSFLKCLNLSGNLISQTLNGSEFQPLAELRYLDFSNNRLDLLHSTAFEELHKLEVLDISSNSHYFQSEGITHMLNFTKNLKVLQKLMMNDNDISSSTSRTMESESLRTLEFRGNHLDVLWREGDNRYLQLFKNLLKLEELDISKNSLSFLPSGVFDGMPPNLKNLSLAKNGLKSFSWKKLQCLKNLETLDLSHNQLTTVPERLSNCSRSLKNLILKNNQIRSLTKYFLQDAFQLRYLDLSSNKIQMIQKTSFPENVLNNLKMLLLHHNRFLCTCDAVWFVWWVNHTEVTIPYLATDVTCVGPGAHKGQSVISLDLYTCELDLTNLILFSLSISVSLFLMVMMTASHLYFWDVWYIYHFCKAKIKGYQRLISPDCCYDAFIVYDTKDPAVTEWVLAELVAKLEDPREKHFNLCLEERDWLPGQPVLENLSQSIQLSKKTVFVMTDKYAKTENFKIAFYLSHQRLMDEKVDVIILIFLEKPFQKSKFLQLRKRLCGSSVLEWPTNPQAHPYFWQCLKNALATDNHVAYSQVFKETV
Text: HEK293-Blue-hTLR-7 Cells Assay: A stable HEK293-Blue-hTLR-7 cell line was purchased from InvivoGen (Cat.#: hkb-htlr7, San Diego, Calif., USA). These cells were designed for studying the stimulation of human TLR7 by monitoring the activation of NF-κB. A SEAP (secreted embryonic alkaline phosphatase) reporter gene was placed under the control of the IFN-β[…] minimal promoter fused to five NF-κB and AP-1-binding sites. The SEAP was induced by activating NF-κB and AP-1 via stimulating HEK-Blue hTLR7 cells with TLR7 ligands. Therefore the reporter expression was regulated by the NF-κB promoter upon stimulation of human TLR7 for 20 hours. The cell culture supernatant SEAP reporter activity was determined using QUANTI-Blue™ kit (Cat.#: rep-qb1, Invivogen, San Diego, Calif., USA) at a wavelength of 640 nm, a detection medium that turns purple or blue in the presence of alkaline phosphatase. […] Then 20 μL of the supernatant from each well was incubated with 180 μL Quanti-blue substrate solution at 37° C. for 2 hours and the absorbance was read at 620˜655 nm using a spectrophotometer. […] Hiroaki Hemmi et al, Nature Immunology 3, 196-200 (2002).

Row | Compound | EC50 [µM]
10 | CC[C@H](O)[C@@H]1C[C@@H](C)[C@H](n2c(=O)sc3c(=O)[nH]c(N)nc32)O1 [Example 28, 5-amino-3-[(2R,3R,5S)-5-[(1S)-1-hydroxypropyl]-3-methyl-tetrahydrofuran-2-yl]-6H-thiazolo[4,5-d]pyrimidine-2,7-dione] | 10

same assay, conditions: HEK293-Blue-hTLR-7 cells, 20 hours incubation, SEAP reporter; read-out: HEK293- hTLR-7 EC50

Row | Compound | EC50 [µM]
11 | C=CCC(O)[C@@H]1C[C@@H](O)[C@H](n2c(=O)sc3c(=O)[nH]c(N)nc32)O1 (single isomer, unassigned) [Example 8-A] | 87
12 | CCCC(O)[C@@H]1C[C@@H](O)[C@H](n2c(=O)sc3c(=O)[nH]c(N)nc32)O1 (single isomer, unassigned) [Example 10-A] | 63
13 | Nc1nc2c(sc(=O)n2[C@@H]2O[C@H](C(O)C3CC3)C[C@H]2O)c(=O)[nH]1 (single isomer, unassigned) [Example 14-A] | 48
14 | C#CC(O)[C@@H]1C[C@@H](O)[C@H](n2c(=O)sc3c(=O)[nH]c(N)nc32)O1 (single isomer, unassigned) [Example 18-A] | 12
15 | CC#CC(O)[C@@H]1C[C@@H](O)[C@H](n2c(=O)sc3c(=O)[nH]c(N)nc32)O1 (single isomer, unassigned) [Example 19-A] | 38
16 | CCC(O)[C@@H]1C[C@@H](SC)[C@H](n2c(=O)sc3c(=O)[nH]c(N)nc32)O1 (single isomer, unassigned) [Example 22-A] | 14
17 | CCC(O)[C@@H]1C[C@@H](N=[N+]=[N-])[C@H](n2c(=O)sc3c(=O)[nH]c(N)nc32)O1 (single isomer, unassigned) [Example 23-A] | 26
18 | C=CC(O)[C@@H]1C[C@@H](O)[C@H](n2c(=O)sc3c(=O)[nH]c(N)nc32)O1 (single isomer, unassigned) [Example 24-A] | 70
19 | C=CC[C@@H]1C[C@@H](C(O)CC)O[C@H]1n1c(=O)sc2c(=O)[nH]c(N)nc21 (single isomer, unassigned) [Example 26-A] | 12
20 | Nc1nc2c(sc(=O)n2[C@@H]2O[C@H](CO)C[C@H]2O)c(=O)[nH]1 [ANA-122, reference compound] | 446
21 | C=CC[C@@H]1C[C@@H](C(O)CC)O[C@H]1n1c(=O)sc2c(=O)[nH]c(N)nc21 (stereo partly drawn) [Example 26, 3-[(2R,3R,5S)-3-allyl-5-(1-hydroxypropyl)tetrahydrofuran-2-yl]-5-amino-6H-thiazolo[4,5-d]pyrimidine-2,7-dione] | 29
22 | CCC[C@@H]1C[C@@H]([C@@H](O)CC)O[C@H]1n1c(=O)sc2c(=O)[nH]c(N)nc21 [Example 27-A, 5-amino-3-[(2R,3R,5S)-5-[(1S)-1-hydroxypropyl]-3-propyl-tetrahydrofuran-2-yl]-6H-thiazolo[4,5-d]pyrimidine-2,7-dione] | 15
23 | CC#C[C@H](O)[C@@H]1C[C@@H](C)[C@H](n2c(=O)sc3c(=O)[nH]c(N)nc32)O1 [Example 29, 5-Amino-3-[(2R,3R,5S)-5-[(1S)-1-hydroxybut-2-ynyl]-3-methyl-tetrahydrofuran-2-yl]-6H-thiazolo[4,5-d]pyrimidine-2,7-dione] | 29
24 | C[C@@H]1C[C@@H]([C@@H](O)C2CC2)O[C@H]1n1c(=O)sc2c(=O)[nH]c(N)nc21 [Example 30, 5-Amino-3-[(2R,3R,5S)-5-[(S)-cyclopropyl(hydroxy)methyl]-3-methyl-tetrahydrofuran-2-yl]-6H-thiazolo[4,5-d]pyrimidine-2,7-dione] | 15
25 | C[C@H](O)[C@@H]1C[C@@H](C)[C@H](n2c(=O)sc3c(=O)[nH]c(N)nc32)O1 [Example 31, 5-Amino-3-[(2R,3R,5S)-5-[(1S)-1-hydroxyethyl]-3-methyl-tetrahydrofuran-2-yl]-6H-thiazolo[4,5-d]pyrimidine-2,7-dione] | 70
26 | Nc1nc2c(sc(=O)n2[C@@H]2O[C@H](CO)C[C@H]2N2CCCC2)c(=O)[nH]1 [Example 32, 5-Amino-3-[(2R,3R,5S)-5-(hydroxymethyl)-3-pyrrolidin-1-yl-tetrahydrofuran-2-yl]-6H-thiazolo[4,5-d]pyrimidine-2,7-dione] | 67
27 | CS[C@@H]1C[C@@H](CO)O[C@H]1n1c(=O)sc2c(=O)[nH]c(N)nc21 [Example 39, 5-Amino-3-[(2R,3R,5S)-5-(hydroxymethyl)-3-methylsulfanyl-tetrahydrofuran-2-yl]-6H-thiazolo[4,5-d]pyrimidine-2,7-dione] | 62
28 | CC[C@H](OC(=O)C(C)C)[C@@H]1C[C@@H](O)[C@H](n2c(=O)sc3c(=O)[nH]c(N)nc32)O1 [Example 42, [(1S)-1-[(2S,4R,5R)-5-(5-Amino-2,7-dioxo-6H-thiazolo[4,5-d]pyrimidin-3-yl)-4-hydroxy-tetrahydrofuran-2-yl]propyl] 2-methylpropanoate] | 51
